Laboratory results taken from US20060216761A1, “Isolation material for hormone disrupting substance, method of concentrating and method of clean-up” (priority 2002, published 2006).

B1: EE2-8-18: anti-ethynyl estradiol monoclonal antibody from mouse hybridoma EE2-8-18 line (antibody, V domains shown)
VH: VQVKESGPGLVAPSQSLSISCTVSGFPLTSYGVQWVRQPPGKGLEWLGVIWPGGSTNYNSALMSRLSISKDNSKSQVFLKMNSLQTDDTAMYYCAGWFQTGPRLFAYWGQGTLVTVSA
VL: DIQMTQSPASLSASVGETVTITCRASENIHSYLAWYQQKQGKSPQVLVYNAKTLGEGVSSRFSGSGSGTQFSLKINSLQPEDFGTYYCQNHYGSPWTFGGGTKLESK
modifications: Mouse
notes: anti-ethynyl estradiol monoclonal antibody from mouse hybridoma EE2-8-18 line
B2: EE2-3: anti-ethynyl estradiol monoclonal antibody from mouse hybridoma EE2-3 line (antibody)
VH: VTLKXSGPGILQPSQTLSLTCSFSGFSLSTSDLGVSWIRQTSGKGLEWLAHIYWNDDKYYNPSLKSRLTISKDTSGNLVFLRITSVDTDDSATYYCARSPLYGSLTYWGQGTLVTVSA
light: DIVMSQSPSSLAVSVGEKVTLNCKSSQSLLNSRTRKNYLAWYQQKPGQSPKLLISWASTRESGVPDRFTGSGSGTDFTLTISSVQAEDLAVYYCNQFYYLLTFGAGTKLELKRADAAPTVSIFPPSSEQLTSGGASVVCFLNNFYPKDINVKWKIDGSERQNGVLNSWTDQDSKDSTYSMSSTLTLTKDEYERHNSYTCEATHKTSTSPIVKSFNRNE
modifications: Mouse; (5)..(5) Xaa = unknown for each location where they appear
notes: anti-ethynyl estradiol monoclonal antibody from mouse hybridoma EE2-3 line

Tested on: purified anti-resin plasticizer antibody
Test: Cross reactivity of purified anti-resin plasticizer antibody
Assay type: binding, rabbit
Details: assuming DBP=100%

Row | Molecule | Cross reactivity [%]
1 | CCCCCOC(=O)c1ccccc1C(=O)OCCCCC [Dipentyl phthalate] | 10
2 | CCOC(=O)c1ccccc1C(=O)OCC [Diethyl phthalate] | 7
3 | CCCCC(CC)COC(=O)c1ccccc1C(=O)OCC(CC)CCCC (stereo not drawn) [Diethylhexyl phthalate (DEHP), Diethylhexyl phthalate] | <1
4 | CCCOC(=O)c1ccccc1C(=O)OCCC [Dipropyl phthalate] | 27
5 | CCCCC(CC)COC(=O)CCCCC(=O)OCC(CC)CCCC (stereo not drawn) [Diethylhexyl adipate] | <1
6 | CCCCCCOC(=O)c1ccccc1C(=O)OCCCCCC [Dihexyl phthalate] | 4
7 | CC(C)CCCCCCOC(=O)c1ccccc1C(=O)OCCCCCCC(C)C [Diisononyl phthalate] | <1
8 | O=C(OC1CCCCC1)c1ccccc1C(=O)OC1CCCCC1 [Dicyclohexyl phthalate] | <1
9 | CCCCOC(=O)c1ccccc1C(=O)OCCCC [Dibutyl phthalate] | 100

Tested on: purified anti-estrogen polyclonal antibody
Test: Cross reactivity of purified anti-estrogen polyclonal antibody
Assay type: binding, rabbit
Details: assuming E2=100%
Description: In the E3-16G-KLH-immunized rabbits, third immunization (immunization number 3) led to an equilibrium of antibody titer, and 168 mg of purified anti-estrogen polyclonal antibody was obtained from one rabbit.

Row | Molecule | Cross reactivity [%]
10 | C[C@]12CC[C@@H]3c4ccc(O)cc4CC[C@H]3[C@@H]1C[C@@H](O)[C@@H]2O [Estriol (E3), Estriol] | 69
11 | C#C[C@]1(O)CC[C@H]2[C@@H]3CCc4cc(O)ccc4[C@H]3CC[C@@]21C [Ethynylestradiol (EE2), Ethynylestradiol] | 7
12 | CCCCC(CC)COC(=O)c1ccccc1C(=O)OCC(CC)CCCC (stereo not drawn) [Diethylhexyl phthalate (DEHP), Diethylhexyl phthalate] | <0.02
13 | C[C@]12CC[C@@H]3c4ccc(O)cc4CC[C@H]3[C@@H]1CC[C@@H]2O [17β-Estradiol (E2), 17β-Estradiol] | 100
14 | Oc1ccc(Cl)cc1Cl [2,4-Dichlorophenol (2,4DCP), 2,4-Dichlorophenol] | <0.02
15 | Nonylphenol ethoxylate [Nonylphenol ethoxylate (NP10EO)] | <0.02
16 | t-Nonylphenol [t-Nonylphenol (NP)] | <0.02
17 | CC(C)(c1ccc(O)cc1)c1ccc(O)cc1 [Bisphenol A (BPA), Bisphenol A] | <0.02

Tested on: not listed separately
Test: Resistance of monoclonal antibody to a detergent
Parameters: species or system mouse
Details: compared with antibody from EE2-277 line

Row | Molecule | resistance to a detergent of the antibody
18 | B1 | slightly lower than that of one from EE2-277 line
19 | B2 | the same as that of one from EE2-277 line

Tested on: purified anti-resin component antibody
Test: Cross reactivity of purified anti-resin component antibody
Assay type: binding, rabbit
Details: assuming BPA=100%
Description: Also, even in the BPA-2-KLH-immunized rabbits, sixth immunization (immunization number 6) led to an equilibrium of antibody titer, and 178 mg of purified anti-resin component antibody was obtained from one rabbit. When assuming BPA=100% for this purified antibody, cross reactivity was as shown in Table 12; as specificity for BPA was high, it was proven that BPA only can be specifically concentrated or cleaned up.

Row | Molecule | Cross reactivity [%]
20 | CC(CCC(=O)O)(c1ccc(O)cc1)c1ccc(O)cc1 [4,4′-Bis(p-hydroxyphenyl)pentanoic acid] | <0.4
21 | CC(CO)(c1ccc(O)cc1)c1ccc(O)cc1 [2,2′-Bis(4-hydroxyphenyl)-1-propanol] | 9.3
22 | Oc1ccc(Oc2ccc(O)cc2)cc1 [4,4′-Dihydroxydiphenyl ether] | <0.4
23 | CC(C)(c1ccc(OCC2CO2)cc1)c1ccc(OCC2CO2)cc1 (stereo not drawn) [BPA diglycidyl ether] | <0.4
24 | CCC(C)(c1ccc(O)cc1)c1ccc(O)cc1 [Bisphenol B (BPB), Bisphenol B] | 22.5
25 | O=S(=O)(c1ccc(OCCO)cc1)c1ccc(OCCO)cc1 [Bis[4-(2-hydroxyethoxy)phenyl]sulfone] | <0.4
26 | CC(c1ccc(O)cc1)c1ccc(O)cc1 [Bisphenol E (BPE), Bisphenol E] | 6.6
27 | C=C(C)C(=O)Oc1ccc(C(C)(C)c2ccc(OC(=O)C(=C)C)cc2)cc1 [BPA dimethacrylate] | 2.7
28 | O=C(c1ccc(O)cc1)c1ccc(O)cc1 [p,p′-Dihydroxybenzophenone] | <0.4
29 | CC(O)(Cc1ccc(O)cc1)c1ccc(O)cc1 (stereo not drawn) [1,2-Bis(4-hydroxyphenyl)-2-propanol] | <0.4
30 | CC(=O)Oc1ccc(C(C)(C)c2ccc(OC(C)=O)cc2)cc1 [BPA diacetate] | 11.1
31 | Oc1ccc(Cc2ccc(O)cc2)cc1 [Bis(p-hydroxyphenyl)methane] | 1.0
32 | O=S(=O)(c1ccc(O)cc1)c1ccc(O)cc1 [Bisphenol S (BPS), Bisphenol S] | <0.4
33 | CC(C)(c1ccc(O)cc1)c1ccc(O)cc1 [Bisphenol A (BPA), Bisphenol A] | 100
